This note sets out measurements from ChEMBL document CHEMBL1126448, “Synthesis and biological activity of putative mono-hydroxylated metabolites of velnacrine” (Bioorg Med Chem Lett, 1992).

One data set deals with T1, Acetylcholinesterase (Rattus norvegicus, UniProt P37136).
T1 sequence (P37136 whole entry): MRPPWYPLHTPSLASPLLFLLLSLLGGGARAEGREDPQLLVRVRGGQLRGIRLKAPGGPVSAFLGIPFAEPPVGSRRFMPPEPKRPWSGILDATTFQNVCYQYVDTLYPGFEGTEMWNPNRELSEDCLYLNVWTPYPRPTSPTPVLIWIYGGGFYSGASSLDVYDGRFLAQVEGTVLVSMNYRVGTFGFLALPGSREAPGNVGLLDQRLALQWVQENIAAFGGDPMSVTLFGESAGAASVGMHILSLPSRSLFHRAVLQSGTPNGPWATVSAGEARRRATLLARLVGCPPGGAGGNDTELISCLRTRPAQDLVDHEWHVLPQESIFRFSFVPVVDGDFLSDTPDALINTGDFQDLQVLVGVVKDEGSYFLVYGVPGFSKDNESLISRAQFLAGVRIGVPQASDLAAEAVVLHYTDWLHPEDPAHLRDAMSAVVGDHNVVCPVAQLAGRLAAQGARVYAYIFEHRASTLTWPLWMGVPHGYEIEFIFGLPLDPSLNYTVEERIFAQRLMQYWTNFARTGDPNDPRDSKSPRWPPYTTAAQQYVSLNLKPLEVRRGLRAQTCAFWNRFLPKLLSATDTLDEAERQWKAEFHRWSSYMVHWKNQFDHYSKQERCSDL

In data set [1] the test system is Mus musculus. The experiment in a line: Compound was evaluated for reversal of scopolamine-induced memory impairment in mice when administered subcutaneously (1-10 mg/kg). Format: functional.
Data set [2] can be described thus: Acute toxicity in mice when administered subcutaneously. Conditions: mouse, in vivo, sc.
The test system of data set [3] is Mus musculus. The experiment in a line: Compound was evaluated for reversal of scopolamine-induced memory impairment in mice when administered subcutaneously; Not active (1-10 mg/kg). The class given is functional.
The test system of data set [4] is Mus musculus. Nature of the data set: Compound was evaluated for reversal of scopolamine-induced memory impairment in mice when administered subcutaneously (0.31 - 5 mg/kg). The class given is functional. Conditions: route subcutaneous.
In data set [5] the test system is Mus musculus. The experiment in a line: Compound was evaluated for reversal of scopolamine-induced memory impairment in mice when administered subcutaneously. The class given is functional.
Data set [6] has as its system Mus musculus. The experiment in a line: Compound was evaluated for reversal of scopolamine-induced memory impairment in mice when administered subcutaneously; Not active (0.16-5 mg/kg). The class given is functional.

Structures are written as SMILES. Activity calls are given as the source filed them. The rule behind the calls is not given here.

Description for Acetylcholinesterase: Inhibition of acetylcholinesterase

For `Nc1c2c(nc3ccccc13)C[C@H](O)C[C@@H]2O`, inhibition on Acetylcholinesterase was half-maximal at 5.4 µM (IC50). The Dose in the data set on Mus musculus [1] was determined as 1 mg/kg. In data set [2], this compound yielded an LD50 of more than 80 mg/kg.

Take `Nc1c2c(nc3cccc(O)c13)CCCC2O` (centres undefined): the IC50 at Acetylcholinesterase was determined as 27.4 µM. Moreover, the median lethal dose (LD50) in data set [2] was more than 80 mg/kg. Also, the Dose in the data set with Mus musculus [3] worked out at 1 mg/kg.

`Nc1c2c(nc3ccccc13)CCCC2O` (centres undefined) [VELNACRINE] showed an IC50 at Acetylcholinesterase of 1.3 µM. Also, in the data set with Mus musculus [4], the Dose was 0.31 mg/kg. Besides, the LD50 in data set [2] was more than 80 mg/kg.

At Acetylcholinesterase, `Nc1c2c(nc3ccccc13)CC[C@H](O)[C@H]2O` displayed a half-maximal inhibitory concentration (IC50) of more than 100 µM.

For the compound `Nc1c2c(nc3ccccc13)C[C@H](O)C[C@H]2O`, inhibition at Acetylcholinesterase was half-maximal at 14.7 µM (IC50). Moreover, in the data set with Mus musculus [1], the Dose worked out at 1 mg/kg. Further, in data set [2], the 50% lethal dose (LD50) is more than 80 mg/kg.

For `Nc1c2c(nc3ccccc13)[C@H](O)CC[C@@H]2O`, at Acetylcholinesterase, the IC50 was 4.6 µM. In addition, the Dose in the data set on Mus musculus [5] came out at 3 mg/kg. Besides, the LD50 in data set [2] is more than 80 mg/kg.

With `Nc1c2c(nc3c(O)cccc13)CCCC2O` (centres undefined), on Acetylcholinesterase, the IC50 turned out to be 25.1 µM. In addition, the median lethal dose (LD50) in data set [2] is more than 80 mg/kg. In the data set with Mus musculus [3], the Dose was 1 mg/kg.

Regarding `Nc1c2c(nc3ccccc13)[C@H](O)CC[C@H]2O`, at Acetylcholinesterase, 62.1 µM corresponded to half-maximal inhibition (IC50). This compound yielded an LD50 in data set [2] of more than 80 mg/kg. Besides, in the data set on Mus musculus [3], the DOSE entry is “inactive”.

At Acetylcholinesterase, `Nc1c2c(nc3ccccc13)CC[C@H](O)[C@@H]2O` registered an IC50 of more than 100 µM.

For the compound `Nc1c2c(nc3cc(O)ccc13)CCCC2O` (centres undefined), the midpoint of inhibition against Acetylcholinesterase, the IC50, lay at 64.4 µM. The Dose in the data set on Mus musculus [6] was found to be 0.16 mg/kg. In data set [2], this compound had an LD50 of more than 80 mg/kg.

On Acetylcholinesterase, `Nc1c2c(nc3ccc(O)cc13)CCCC2O` (centres undefined) returned an IC50 of 10.6 µM. In the data set with Mus musculus [6], the Dose is 0.16 mg/kg. Moreover, the 50% lethal dose (LD50) in data set [2] was more than 80 mg/kg.

As a reminder, the IC50 is the concentration that inhibits the measured activity by half. Lower therefore signals greater potency. As a reminder, the LD50 is the dose at which mortality reaches 50%. A lower LD50 goes with greater toxicity.
